# Assay results taken from patent US8007995B2 (Bristol-Myers Squibb Company, priority 2005, dated 2011).
# Legend:
# Experiment in all cases: Proliferation assay (cell counts, growth inhibition)
# Assay type in all cases: cell-based, human
# KPL-1 = settings: Luminal, ER Positive, HER-2 Normal, inhibition at 1 μM
# HCC-70 = settings: Basal, ER Negative, HER-2 Normal, inhibition at 1 μM
# Excerpt: (§1) The cell lines MDA-MB-415, MDA-MB-134, HCC-1500, ZR-75-30, HCC-202, HCC-1419, HCC-38, HCC-70, HCC-1187, HCC-1806, HCC-1937, HCC-1954, MDA-MB-436, HCC-1569, Hs578t, HCC-1143, MDA-MB-175, BT-474, SK-BR-3, MDA-MB-361, UAC-893, UACC-812, UACC-732, T-47D, MDA-MB-453, MDA-MB-468, CAMA-1, MDA-MB-157, MCF-7, MDA-MB-435, ZR-75-1, BT-20, and MDA-MB-231 were obtained from American Type Culture Collection (Rockville, Md.). The cell lines EFM-192A, KPL-1, EFM-19 and CAL-51 were obtained from the German Tissue Repository DSMZ (Braunschweig Germany), and the cell lines SUM-190 and SUM-225 were obtained from the University of Michigan (Ann Arbor, Mich.). MDA-MB-134, MDA-MB415, MDA-MB-436, MDA-MB-175, UACC-893, UACC-812, and MDA-MB-157 cells were cultured in L15 medium supplemented with 10% heat-inactivated fetal bovine serum (FBS), […] glutamine and 1% penicillin G-streptomycin-fungizone solution (PSF, Irvine Scientific, Santa Ana, Calif.). CAL-51, KPL-1, Hs578t cells were grown in DMEM supplemented with 10% heat-inactivated FBS and PSF, as above. SUM-190 and SUM-225 cells were cultured in HAM's F12 supplemented with 5% heat-inactivated FBS, PSF, […] hydrocortisone. The remaining cell lines were cultured in RPMI 1640 supplemented with 10% heat-inactivated FBS, 2 mmol/L glutamine, and PSF.
# (§2) Cells were seeded in duplicate at 5,000 to 10,000 cells per well in 24-well plates. […] Control wells without drug were seeded as well. Both the adherent and floating fractions of cells were counted on days 2, 5 and 7 for both treatment and control wells. After trypsinization cells were placed in Isotone solution and counted immediately using a Coulter Z2 particle counter (Beckman Coulter Inc, Fullerton, Calif.).
# (§3) Growth inhibition was calculated [(1-experimental value/control value)×100] for each day adding both the values obtained for the floating cells and the adherent cells. Pearson-Chi-square analysis was performed to identify a correlation between subtype and sensitivity to dasatinib. Dasatinib was a gift from Frank Lee at Bristol-Meyers-Squibb.
# HCC-1954 = settings: Basal, ER Negative, HER-2 Amplified, inhibition at 1 μM
# Excerpt: as §1, §2, §3
# SUM-190 = settings: Luminal, ER Negative, HER-2 Amplified, inhibition at 1 μM
# Excerpt: as §1, §2, §3
# SUM-225 = settings: Luminal, ER Negative, HER-2 Amplified, inhibition at 1 μM
# Excerpt: as §1, §2, §3
# UACC-732 = settings: Luminal, ER Positive, HER-2 Amplified, inhibition at 1 μM
# Excerpt: as §1, §2, §3
# HCC-1187 = settings: Basal, ER Negative, HER-2 Normal, inhibition at 1 μM
# Excerpt: as §1, §2, §3
# T-47D = settings: Luminal, ER Positive, HER-2 Normal, inhibition at 1 μM
# Excerpt: as §1, §2, §3
# MDA-MB-175 = settings: Luminal, ER Positive, HER-2 Normal, inhibition at 1 μM
# Excerpt: as §1, §2, §3
# HCC 38 = settings: Basal, ER Negative, HER-2 Normal, inhibition at 1 μM
# Excerpt: as §1, §2, §3
# MDA-MB-157 = settings: Post-EMT, ER Negative, HER-2 Normal, inhibition at 1 μM
# Excerpt: as §1, §2, §3
# MDA-MB-231 = settings: Post-EMT, ER Negative, HER-2 Normal, inhibition at 1 μM
# Excerpt: as §1, §2, §3
# MDA-MB-361 = settings: Luminal, ER Positive, HER-2 Amplified, inhibition at 1 μM
# Excerpt: as §1, §2, §3
# BT-474 = settings: Luminal, ER Positive, HER-2 Amplified, inhibition at 1 μM
# Excerpt: as §1, §2, §3
# CAMA-1 = settings: Luminal, ER Positive, HER-2 Normal, inhibition at 1 μM
# Excerpt: as §1, §2, §3
# MDA-MB-415 = settings: Luminal, ER Positive, HER-2 Normal, inhibition at 1 μM
# Excerpt: as §1, §2, §3
# MCF-7 = settings: Luminal, ER Positive, HER-2 Normal, inhibition at 1 μM
# Excerpt: as §1, §2, §3
# HCC-1500 = settings: Luminal, ER Positive, HER-2 Normal, inhibition at 1 μM
# Excerpt: as §1, §2, §3
# HCC-1419 = settings: Luminal, ER Positive, HER-2 Amplified, inhibition at 1 μM
# Excerpt: as §1, §2, §3
# MDA-MB-435 = settings: Post-EMT, ER Negative, HER-2 Normal, inhibition at 1 μM
# Excerpt: as §1, §2, §3
# MDA-MB-436 = settings: Post-EMT, ER Negative, HER-2 Normal, inhibition at 1 μM
# Excerpt: as §1, §2, §3
# HCC-1806 = settings: Basal, ER Negative, HER-2 Normal, inhibition at 1 μM
# Excerpt: as §1, §2, §3
# UACC-812 = settings: Luminal, ER Positive, HER-2 Amplified, inhibition at 1 μM
# Excerpt: as §1, §2, §3
# ZR-75-30 = settings: Luminal, ER Positive, HER-2 Amplified, inhibition at 1 μM
# Excerpt: as §1, §2, §3
# HCC-1937 = settings: Basal, ER Negative, HER-2 Normal, inhibition at 1 μM
# Excerpt: as §1, §2, §3
# MDA-MB-134 = settings: Luminal, ER Positive, HER-2 Normal, inhibition at 1 μM
# Excerpt: as §1, §2, §3
# BT-20 = settings: Basal, ER Negative, HER-2 Normal, inhibition at 1 μM
# Excerpt: as §1, §2, §3
# SK-BR-3 = settings: Luminal, ER Negative, HER-2 Amplified, inhibition at 1 μM
# Excerpt: as §1, §2, §3
# ZR-75-1 = settings: Luminal, ER Positive, HER-2 Normal, inhibition at 1 μM
# Excerpt: as §1, §2, §3
# HCC-202 = settings: Luminal, ER Positive, HER-2 Amplified, inhibition at 1 μM
# Excerpt: as §1, §2, §3
# UACC-893 = settings: Luminal, ER Negative, HER-2 Amplified, inhibition at 1 μM
# Excerpt: as §1, §2, §3
# MDA-MB-468 = settings: Basal, ER Negative, HER-2 Normal, inhibition at 1 μM
# Excerpt: as §1, §2, §3
# MDA-MB-453 = settings: Luminal, ER Negative, HER-2 Amplified, inhibition at 1 μM
# Excerpt: as §1, §2, §3
# Hs578t = settings: Post-EMT, ER Negative, HER-2 Normal, inhibition at 1 μM
# Excerpt: as §1, §2, §3
# HCC-1569 = settings: Post-EMT, ER Negative, HER-2 Amplified, inhibition at 1 μM
# Excerpt: as §1, §2, §3
# HCC-1143 = settings: Basal, ER Negative, HER-2 Normal, inhibition at 1 μM
# Excerpt: as §1, §2, §3
# EFM-192A = settings: Luminal, ER Positive, HER-2 Amplified, inhibition at 1 μM
# Excerpt: as §1, §2, §3
# EFM-19 = settings: Luminal, ER Positive, HER-2 Normal, inhibition at 1 μM
# Excerpt: as §1, §2, §3
# CAL-51 = settings: Post-EMT, ER Negative, HER-2 Normal, inhibition at 1 μM
# Excerpt: as §1, §2, §3
smiles,measurement,setting,value
"Cc1nc(Nc2ncc(C(=O)Nc3c(C)cccc3Cl)s2)cc(N2CCN(CCO)CC2)n1 [Dasatinib, N-(2-chloro-6-methylphenyl)-2-[[6-[4-(2-hydroxyethyl)-1-piperazinyl]-2-methyl-4-pyrimidinyl]amino]-5-thiazolecarboxamide]",Response to Dasatinib in vitro,KPL-1,Resistant (<40% inhibition at 1 μM assigned to the resistant group)
same,Response to Dasatinib in vitro,HCC-70,Highly Sensitive (greater than 60% inhibition being assigned to the highly sensitive group)
same,Response to Dasatinib in vitro,HCC-1954,Moderately Sensitive (40-59% inhibition being assigned to the moderately sensitive group)
same,Response to Dasatinib in vitro,SUM-190,Resistant (<40% inhibition at 1 μM assigned to the resistant group)
same,Response to Dasatinib in vitro,SUM-225,Resistant (<40% inhibition at 1 μM assigned to the resistant group)
same,Response to Dasatinib in vitro,UACC-732,Resistant (<40% inhibition at 1 μM assigned to the resistant group)
same,Response to Dasatinib in vitro,HCC-1187,Moderately Sensitive (40-59% inhibition being assigned to the moderately sensitive group)
same,Response to Dasatinib in vitro,T-47D,Moderately Sensitive (40-59% inhibition being assigned to the moderately sensitive group)
same,Response to Dasatinib in vitro,MDA-MB-175,Resistant (<40% inhibition at 1 μM assigned to the resistant group)
same,Response to Dasatinib in vitro,HCC 38,Resistant (<40% inhibition at 1 μM assigned to the resistant group)
same,Response to Dasatinib in vitro,MDA-MB-157,Highly Sensitive (greater than 60% inhibition being assigned to the highly sensitive group)
same,Response to Dasatinib in vitro,MDA-MB-231,Highly Sensitive (greater than 60% inhibition being assigned to the highly sensitive group)
same,Response to Dasatinib in vitro,MDA-MB-231; listed as dasatinib,highly sensitive
same,Response to Dasatinib in vitro,MDA-MB-361,Moderately Sensitive (40-59% inhibition being assigned to the moderately sensitive group)
same,Response to Dasatinib in vitro,BT-474,Moderately Sensitive (40-59% inhibition being assigned to the moderately sensitive group)
same,Response to Dasatinib in vitro,CAMA-1,Resistant (<40% inhibition at 1 μM assigned to the resistant group)
same,Response to Dasatinib in vitro,MDA-MB-415,Resistant (<40% inhibition at 1 μM assigned to the resistant group)
same,Response to Dasatinib in vitro,MCF-7,Moderately Sensitive (40-59% inhibition being assigned to the moderately sensitive group)
same,Response to Dasatinib in vitro,HCC-1500,Resistant (<40% inhibition at 1 μM assigned to the resistant group)
same,Response to Dasatinib in vitro,HCC-1419,Moderately Sensitive (40-59% inhibition being assigned to the moderately sensitive group)
same,Response to Dasatinib in vitro,MDA-MB-435,Highly Sensitive (greater than 60% inhibition being assigned to the highly sensitive group)
same,Response to Dasatinib in vitro,MDA-MB-435; listed as dasatinib,highly sensitive
same,Response to Dasatinib in vitro,MDA-MB-436,Highly Sensitive (greater than 60% inhibition being assigned to the highly sensitive group)
same,Response to Dasatinib in vitro,HCC-1806,Highly Sensitive (greater than 60% inhibition being assigned to the highly sensitive group)
same,Response to Dasatinib in vitro,UACC-812,Resistant (<40% inhibition at 1 μM assigned to the resistant group)
same,Response to Dasatinib in vitro,ZR-75-30,Resistant (<40% inhibition at 1 μM assigned to the resistant group)
same,Response to Dasatinib in vitro,HCC-1937,Moderately Sensitive (40-59% inhibition being assigned to the moderately sensitive group)
same,Response to Dasatinib in vitro,MDA-MB-134,Resistant (<40% inhibition at 1 μM assigned to the resistant group)
same,Response to Dasatinib in vitro,BT-20,Resistant (<40% inhibition at 1 μM assigned to the resistant group)
same,Response to Dasatinib in vitro,SK-BR-3,Resistant (<40% inhibition at 1 μM assigned to the resistant group)
same,Response to Dasatinib in vitro,ZR-75-1,Resistant (<40% inhibition at 1 μM assigned to the resistant group)
same,Response to Dasatinib in vitro,HCC-202,Resistant (<40% inhibition at 1 μM assigned to the resistant group)
same,Response to Dasatinib in vitro,UACC-893,Resistant (<40% inhibition at 1 μM assigned to the resistant group)
same,Response to Dasatinib in vitro,MDA-MB-468,Resistant (<40% inhibition at 1 μM assigned to the resistant group)
same,Response to Dasatinib in vitro,MDA-MB-468; listed as dasatinib,resistant
same,Response to Dasatinib in vitro,MDA-MB-453,Resistant (<40% inhibition at 1 μM assigned to the resistant group)
same,Response to Dasatinib in vitro,Hs578t,Highly Sensitive (greater than 60% inhibition being assigned to the highly sensitive group)
same,Response to Dasatinib in vitro,HCC-1569,Resistant (<40% inhibition at 1 μM assigned to the resistant group)
same,Response to Dasatinib in vitro,HCC-1143,Moderately Sensitive (40-59% inhibition being assigned to the moderately sensitive group)
same,Response to Dasatinib in vitro,EFM-192A,Resistant (<40% inhibition at 1 μM assigned to the resistant group)
same,Response to Dasatinib in vitro,EFM-19,Moderately Sensitive (40-59% inhibition being assigned to the moderately sensitive group)
same,Response to Dasatinib in vitro,CAL-51,Highly Sensitive (greater than 60% inhibition being assigned to the highly sensitive group)
